In patent US20130197032A1, “[…] COMPOUNDS FOR THE TREATMENT OF NEUROLOGICAL AND […] DISORDERS” (A. CARLSSON RESEARCH AB, priority 2010, published 2013):

Columns and labels:
human 5-HT1B receptor = human 5-HT1B receptor (Homo sapiens, UniProt P28222); test: R-SAT assay 5-HT1B; type: cell-based
human 5-HT1D receptor = target: T1, human 5-HT1D receptor (Homo sapiens, UniProt P28221); test: R-SAT assay 5-HT1D; type: cell-based; settings: Table 3, 5-HT1D; percent response of reference 5-CT
T1 construct: expressed in transfected cells; host or cells: NIH/3T3

5-HT2B receptors = 5-HT2B receptors (Homo sapiens, UniProt P41595); test: R-SAT assay 5-HT2B; type: cell-based; set-up: expressed in transfected cells; host or cells: NIH/3T3
[1] = target: T2, human 5-HT2C(vgv) receptor (Homo sapiens, UniProt P28335, I156V/I160V/N158G); test: R-SAT assay 5-HT2C; type: cell-based; settings: Table 3, 5-HT2C; percent response of reference 5-CT
T2 construct: expressed in transfected cells; host or cells: NIH/3T3
T2 sequence (P28335 33-458 I156V/N158G/I160V): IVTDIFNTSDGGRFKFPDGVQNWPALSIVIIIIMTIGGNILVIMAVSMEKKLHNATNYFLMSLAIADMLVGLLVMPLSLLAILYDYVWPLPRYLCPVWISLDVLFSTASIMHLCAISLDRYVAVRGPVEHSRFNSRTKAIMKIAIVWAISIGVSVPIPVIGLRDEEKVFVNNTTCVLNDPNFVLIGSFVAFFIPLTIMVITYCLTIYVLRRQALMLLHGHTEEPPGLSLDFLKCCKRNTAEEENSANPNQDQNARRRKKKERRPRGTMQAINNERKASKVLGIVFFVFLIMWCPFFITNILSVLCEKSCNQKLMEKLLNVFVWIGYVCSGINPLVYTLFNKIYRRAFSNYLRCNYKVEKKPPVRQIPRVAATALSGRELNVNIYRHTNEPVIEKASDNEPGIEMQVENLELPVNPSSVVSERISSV

human 5-HT2A receptors [2] = target: T3, human 5-HT2A receptors (Homo sapiens, UniProt P28223); test: R-SAT functional assay at 5-HT2A; type: cell-based; set-up: expressed in transfected cells; host or cells: NIH-3T3
human 5-HT6 receptor = human 5-HT6 receptor (Homo sapiens, UniProt P50406); test: R-SAT assay 5-HT6; type: cell-based
human 5-HT7 receptor = target: T4, human 5-HT7 receptor (Homo sapiens, UniProt P34969); test: R-SAT assay 5-HT7; type: cell-based; settings: Table 3, 5-HT7; percent response of reference 5-CT
T4 construct: expressed in transfected cells; host or cells: NIH/3T3

human 5-HT2A receptors [3] = target: T3, human 5-HT2A receptors; test: BRET2 beta-arrestin-2 recruitment assay at 5-HT2A; type: cell-based; set-up: expressed in transfected cells; host or cells: HEK-293T; settings: mean ± SEM
Procedure: (§1) BRET-2 signals were measured using the multiplate reader Mithras 940LB (Berthold Technologies, Bad Wildbad, Germany) and were calculated as the ratio between the Renilla luciferase emission and the GFP2 emission corrected by the background emissions of non-transfected cells.

human 5-HT2A receptors [4] = target: T3, human 5-HT2A receptors; test: Phosphatidyl inositol (PI) hydrolysis assay at 5-HT2A; type: cell-based; set-up: expressed in transfected cells; settings: mean ± SEM
Procedure: After lysing the cells with 50 μl of 0.1M formic acid, 20 μl each cell lysate was mixed with 80 μl (1 mg) RNA Binding YSi-SPA beads (GE Healthcare, Chalfont St. Giles, UK) on PICO plates (PerkinElmer) and counted on a TopCount (Packard).
Each curve is representative of at least three or more independent experiments.

human M4 receptor = target: T5, human M4 receptor (Homo sapiens, UniProt P08173); test: R-SAT assay M4; type: cell-based; settings: Table 3, M4; percent response of reference Carbachol
T5 construct: expressed in transfected cells; host or cells: NIH/3T3
T5 sequence (P08173 1-479): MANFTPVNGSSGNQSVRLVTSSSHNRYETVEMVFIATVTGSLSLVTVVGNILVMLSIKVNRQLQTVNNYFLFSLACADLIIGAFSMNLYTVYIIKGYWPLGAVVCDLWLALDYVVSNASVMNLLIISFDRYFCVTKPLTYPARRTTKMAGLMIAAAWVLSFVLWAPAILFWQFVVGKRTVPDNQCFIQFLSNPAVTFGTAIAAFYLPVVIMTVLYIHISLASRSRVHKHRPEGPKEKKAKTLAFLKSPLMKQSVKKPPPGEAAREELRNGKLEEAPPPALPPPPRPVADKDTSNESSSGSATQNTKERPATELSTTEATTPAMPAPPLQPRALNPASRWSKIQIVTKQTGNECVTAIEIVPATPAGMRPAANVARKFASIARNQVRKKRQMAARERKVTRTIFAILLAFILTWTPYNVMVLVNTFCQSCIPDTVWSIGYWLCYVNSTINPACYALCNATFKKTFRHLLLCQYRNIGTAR

human M5 receptor = target: T6, human M5 receptor (Homo sapiens, UniProt P08912); test: R-SAT assay M5; type: cell-based; settings: Table 3, M5; percent response of reference Carbachol
T6 construct: expressed in transfected cells; host or cells: NIH/3T3 cells, transient transfection, pSI vector

human M2 receptor = target: T7, human M2 receptor (Homo sapiens, UniProt P08172); test: R-SAT assay M2; type: cell-based; settings: Table 3, M2; percent response of reference Carbachol
T7 construct: expressed in transfected cells; host or cells: NIH/3T3
T7 sequence (P08172 1-466): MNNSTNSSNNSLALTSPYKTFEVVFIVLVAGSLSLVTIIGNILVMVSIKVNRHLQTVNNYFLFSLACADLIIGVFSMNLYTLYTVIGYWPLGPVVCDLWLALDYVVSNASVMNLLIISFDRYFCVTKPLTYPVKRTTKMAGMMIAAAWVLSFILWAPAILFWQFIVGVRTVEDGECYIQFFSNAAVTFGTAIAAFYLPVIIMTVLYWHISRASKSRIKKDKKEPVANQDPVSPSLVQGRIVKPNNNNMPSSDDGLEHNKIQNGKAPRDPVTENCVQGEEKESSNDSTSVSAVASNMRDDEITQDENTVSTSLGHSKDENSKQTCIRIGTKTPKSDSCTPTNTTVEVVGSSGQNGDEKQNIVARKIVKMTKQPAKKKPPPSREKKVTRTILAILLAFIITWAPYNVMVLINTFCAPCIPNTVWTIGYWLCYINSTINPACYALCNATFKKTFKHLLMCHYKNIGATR

D2 receptors [5] = target: T8, D2 receptors (Homo sapiens, UniProt P14416); test: GTPγS binding assay at D2; type: biochemical; set-up: expressed in transfected cells; settings: percent response of reference ligand dopamine; mean ± SEM
Procedure: Cells were not centrifuged following cell scraping, but were collected directly into the ice-cold nitrogen cavitation chamber.
50 μl/well Wheat-Germ Agglutinin SPA beads (Perkin Elmer, Shelton, Conn.) were added to the plates and the plates incubated for 1 hour. The plates were then centrifuged at 1,000×g for 10 minutes and read on a Top Count NXT (Perkin Elmer, Shelton, Conn.).
To relate the results observed in R-SAT™ to a more conventional assay system, these ligands were also tested for the ability to induce GTPγS binding through D2 receptors.

D2 receptors [6] = target: T8, D2 receptors; test: BRET2 beta-arrestin-2 recruitment assay at D2; type: cell-based; set-up: expressed in transfected cells; host or cells: HEK-293T
Procedure: as §1
Each curve is representative of two to three independent experiments.

[7] = target: human D4 (variant 4.2) receptor (Homo sapiens, UniProt P21917, DEL265-296); type: cell-based
D2 receptors [8] = target: T8, D2 receptors; test: R-SAT functional assay at D2; type: cell-based; set-up: expressed in transfected cells; host or cells: NIH-3T3
human D3 receptor = target: T9, human D3 receptor (Homo sapiens, UniProt P35462); test: R-SAT assay D3; type: cell-based; settings: Table 3, D3; percent response of reference Pergolide
T9 construct: expressed in transfected cells

human alpha1B receptor = target: T10, human alpha1B receptor (Homo sapiens, UniProt P35368); test: R-SAT assay α1B; type: cell-based; settings: Table 3, α1B; percent response of reference Phenylephrine
T10 construct: expressed in transfected cells; host or cells: NIH/3T3 cells, transient transfection, pSI vector
T10 sequence (P35368 1-520): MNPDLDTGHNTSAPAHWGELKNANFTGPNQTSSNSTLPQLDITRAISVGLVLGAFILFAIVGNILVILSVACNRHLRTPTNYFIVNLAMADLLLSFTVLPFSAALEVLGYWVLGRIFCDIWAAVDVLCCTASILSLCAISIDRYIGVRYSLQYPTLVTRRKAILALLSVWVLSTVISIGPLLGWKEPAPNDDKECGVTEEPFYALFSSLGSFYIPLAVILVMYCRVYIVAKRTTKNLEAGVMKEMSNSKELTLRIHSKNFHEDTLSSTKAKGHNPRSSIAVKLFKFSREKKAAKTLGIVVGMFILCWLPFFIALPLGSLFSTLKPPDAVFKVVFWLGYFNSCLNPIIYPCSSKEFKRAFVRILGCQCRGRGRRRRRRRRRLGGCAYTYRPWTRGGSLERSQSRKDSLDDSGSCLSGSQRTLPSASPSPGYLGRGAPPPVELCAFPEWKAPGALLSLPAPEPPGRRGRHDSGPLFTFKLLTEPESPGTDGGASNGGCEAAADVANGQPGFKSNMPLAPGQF

human alpha1A receptor = target: T11, human alpha1A receptor (Homo sapiens, UniProt P35348); test: R-SAT assay α1A; type: cell-based; settings: Table 3, α1A; percent response of reference Phenylephrine
T11 construct: expressed in transfected cells; host or cells: NIH/3T3 cells, transient transfection, pSI vector
T11 sequence (P35348 1-466): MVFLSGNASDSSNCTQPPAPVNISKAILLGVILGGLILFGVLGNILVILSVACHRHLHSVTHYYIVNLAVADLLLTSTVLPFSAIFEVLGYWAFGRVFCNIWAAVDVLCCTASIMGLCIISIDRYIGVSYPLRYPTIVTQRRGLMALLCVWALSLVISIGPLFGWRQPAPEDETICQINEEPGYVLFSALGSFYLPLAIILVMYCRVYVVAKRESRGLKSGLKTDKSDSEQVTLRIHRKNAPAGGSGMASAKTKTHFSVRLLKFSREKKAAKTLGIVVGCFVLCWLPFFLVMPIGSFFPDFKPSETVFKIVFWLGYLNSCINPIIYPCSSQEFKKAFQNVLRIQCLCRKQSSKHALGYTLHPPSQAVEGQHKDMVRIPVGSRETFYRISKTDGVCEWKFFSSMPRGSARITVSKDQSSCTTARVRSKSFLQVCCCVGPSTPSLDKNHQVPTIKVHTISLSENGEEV

human D1 receptor = target: T12, human D1 receptor (Homo sapiens, UniProt P21728); test: R-SAT assay D1; type: cell-based; settings: Table 3, D1; percent response of reference SKF 38393
T12 construct: expressed in transfected cells; host or cells: NIH-3T3 (inferred: R-SAT host; D1 is in neither method list of b200)

human alpha2C receptor = target: T13, human alpha2C receptor (Homo sapiens, UniProt P18825); test: R-SAT assay α2C; type: cell-based; settings: Table 3, α2C; percent response of reference UK 14,306
T13 construct: expressed in transfected cells; host or cells: NIH/3T3 cells, transient transfection, pSI vector
T13 sequence (P18825 1-462): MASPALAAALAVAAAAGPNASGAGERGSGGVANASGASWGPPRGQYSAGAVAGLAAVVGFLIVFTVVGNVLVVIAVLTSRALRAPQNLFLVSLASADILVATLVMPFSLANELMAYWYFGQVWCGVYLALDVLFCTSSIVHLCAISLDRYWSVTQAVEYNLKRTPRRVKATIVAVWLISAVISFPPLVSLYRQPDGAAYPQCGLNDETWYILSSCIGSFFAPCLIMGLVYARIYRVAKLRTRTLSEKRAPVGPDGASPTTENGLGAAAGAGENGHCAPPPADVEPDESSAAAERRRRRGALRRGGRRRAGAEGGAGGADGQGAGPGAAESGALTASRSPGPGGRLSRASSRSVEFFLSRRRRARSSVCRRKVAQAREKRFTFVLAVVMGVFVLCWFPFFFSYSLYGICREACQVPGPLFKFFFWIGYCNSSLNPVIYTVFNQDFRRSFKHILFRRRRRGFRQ

[9] = percent response of reference ligand 5-HT

T8 sequence (P14416 1-414 isoform P14416-2): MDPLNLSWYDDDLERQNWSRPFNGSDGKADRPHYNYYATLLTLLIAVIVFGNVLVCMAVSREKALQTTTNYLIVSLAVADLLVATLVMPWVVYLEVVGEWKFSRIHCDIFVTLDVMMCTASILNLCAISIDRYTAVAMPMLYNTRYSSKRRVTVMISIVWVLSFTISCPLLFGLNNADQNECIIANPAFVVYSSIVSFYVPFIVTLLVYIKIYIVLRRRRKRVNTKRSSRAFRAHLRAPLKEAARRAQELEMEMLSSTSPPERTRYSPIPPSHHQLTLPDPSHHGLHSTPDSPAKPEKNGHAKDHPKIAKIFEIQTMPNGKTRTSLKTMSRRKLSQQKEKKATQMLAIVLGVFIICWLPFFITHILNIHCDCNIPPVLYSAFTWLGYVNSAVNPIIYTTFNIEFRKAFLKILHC
T3 sequence (P28223 whole entry): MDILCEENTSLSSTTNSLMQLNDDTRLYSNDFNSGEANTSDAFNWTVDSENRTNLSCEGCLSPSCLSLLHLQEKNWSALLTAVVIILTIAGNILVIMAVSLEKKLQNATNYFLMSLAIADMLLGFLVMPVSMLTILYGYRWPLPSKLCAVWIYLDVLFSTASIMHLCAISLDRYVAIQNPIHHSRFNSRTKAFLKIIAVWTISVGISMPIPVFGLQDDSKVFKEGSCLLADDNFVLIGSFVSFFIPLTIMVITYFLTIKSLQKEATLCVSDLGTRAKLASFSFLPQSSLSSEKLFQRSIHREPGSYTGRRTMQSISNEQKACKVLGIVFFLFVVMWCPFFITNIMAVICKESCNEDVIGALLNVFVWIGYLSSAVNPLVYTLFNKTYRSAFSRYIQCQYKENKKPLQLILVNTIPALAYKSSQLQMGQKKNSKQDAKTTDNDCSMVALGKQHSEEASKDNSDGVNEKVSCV
human 5-HT6 receptor, sequence (P50406 whole entry): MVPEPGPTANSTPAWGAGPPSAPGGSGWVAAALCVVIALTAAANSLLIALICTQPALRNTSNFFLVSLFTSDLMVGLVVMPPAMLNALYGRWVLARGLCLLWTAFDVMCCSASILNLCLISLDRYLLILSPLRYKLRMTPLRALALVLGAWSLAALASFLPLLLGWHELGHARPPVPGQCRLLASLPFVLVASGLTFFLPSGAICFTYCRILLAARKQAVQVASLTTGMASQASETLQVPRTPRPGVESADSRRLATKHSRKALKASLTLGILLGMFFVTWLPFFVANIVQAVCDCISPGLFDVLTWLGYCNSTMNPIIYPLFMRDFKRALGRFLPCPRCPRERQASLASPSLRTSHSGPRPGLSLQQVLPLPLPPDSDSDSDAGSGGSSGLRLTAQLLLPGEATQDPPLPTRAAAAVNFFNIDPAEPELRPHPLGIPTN
5-HT2B receptors, sequence (P41595 whole entry): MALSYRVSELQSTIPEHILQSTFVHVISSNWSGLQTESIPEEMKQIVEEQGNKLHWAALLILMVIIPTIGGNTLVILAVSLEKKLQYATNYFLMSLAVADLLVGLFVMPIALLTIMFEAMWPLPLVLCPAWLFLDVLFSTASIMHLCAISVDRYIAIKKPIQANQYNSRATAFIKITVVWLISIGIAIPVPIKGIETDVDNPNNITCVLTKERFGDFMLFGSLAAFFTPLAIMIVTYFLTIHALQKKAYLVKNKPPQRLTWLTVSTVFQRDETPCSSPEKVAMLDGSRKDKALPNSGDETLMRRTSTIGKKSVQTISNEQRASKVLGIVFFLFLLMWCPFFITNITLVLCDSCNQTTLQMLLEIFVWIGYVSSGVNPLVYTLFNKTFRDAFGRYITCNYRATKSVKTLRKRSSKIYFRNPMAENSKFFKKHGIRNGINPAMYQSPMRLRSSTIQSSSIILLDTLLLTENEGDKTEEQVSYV
human 5-HT1B receptor, sequence (P28222 whole entry): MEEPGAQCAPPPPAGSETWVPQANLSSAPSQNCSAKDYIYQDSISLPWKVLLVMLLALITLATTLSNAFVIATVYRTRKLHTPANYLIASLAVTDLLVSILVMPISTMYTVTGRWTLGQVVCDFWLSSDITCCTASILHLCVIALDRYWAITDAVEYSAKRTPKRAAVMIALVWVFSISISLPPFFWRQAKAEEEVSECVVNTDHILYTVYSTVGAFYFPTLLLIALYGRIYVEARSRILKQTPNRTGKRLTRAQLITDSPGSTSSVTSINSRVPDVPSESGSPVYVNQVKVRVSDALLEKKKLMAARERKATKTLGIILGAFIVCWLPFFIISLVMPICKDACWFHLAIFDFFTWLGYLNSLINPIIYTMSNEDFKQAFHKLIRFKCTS
T1 sequence (P28221 whole entry): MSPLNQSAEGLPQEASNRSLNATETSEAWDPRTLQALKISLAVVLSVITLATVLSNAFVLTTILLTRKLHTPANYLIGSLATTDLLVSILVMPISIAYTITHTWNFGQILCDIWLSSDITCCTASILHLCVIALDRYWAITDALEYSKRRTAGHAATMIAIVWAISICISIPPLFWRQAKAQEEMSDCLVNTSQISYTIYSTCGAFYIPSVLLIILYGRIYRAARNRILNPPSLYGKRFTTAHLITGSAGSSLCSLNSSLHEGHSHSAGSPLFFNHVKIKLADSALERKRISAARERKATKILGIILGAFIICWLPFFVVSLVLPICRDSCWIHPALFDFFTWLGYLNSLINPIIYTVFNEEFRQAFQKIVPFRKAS
T9 sequence (P35462 whole entry): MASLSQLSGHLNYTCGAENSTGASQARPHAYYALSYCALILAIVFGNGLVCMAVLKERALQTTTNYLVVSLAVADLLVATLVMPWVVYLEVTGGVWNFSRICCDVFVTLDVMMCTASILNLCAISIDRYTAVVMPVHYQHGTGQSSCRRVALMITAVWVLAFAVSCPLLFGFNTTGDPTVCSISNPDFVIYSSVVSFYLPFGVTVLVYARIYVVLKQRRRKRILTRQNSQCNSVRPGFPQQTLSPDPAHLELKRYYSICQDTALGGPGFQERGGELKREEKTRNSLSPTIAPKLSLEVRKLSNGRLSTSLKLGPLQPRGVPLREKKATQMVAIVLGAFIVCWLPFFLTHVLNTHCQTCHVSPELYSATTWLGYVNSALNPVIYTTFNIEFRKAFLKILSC
human D4 (variant 4.2) receptor, sequence (P21917 with tags, fused parts or gaps DEL265-296): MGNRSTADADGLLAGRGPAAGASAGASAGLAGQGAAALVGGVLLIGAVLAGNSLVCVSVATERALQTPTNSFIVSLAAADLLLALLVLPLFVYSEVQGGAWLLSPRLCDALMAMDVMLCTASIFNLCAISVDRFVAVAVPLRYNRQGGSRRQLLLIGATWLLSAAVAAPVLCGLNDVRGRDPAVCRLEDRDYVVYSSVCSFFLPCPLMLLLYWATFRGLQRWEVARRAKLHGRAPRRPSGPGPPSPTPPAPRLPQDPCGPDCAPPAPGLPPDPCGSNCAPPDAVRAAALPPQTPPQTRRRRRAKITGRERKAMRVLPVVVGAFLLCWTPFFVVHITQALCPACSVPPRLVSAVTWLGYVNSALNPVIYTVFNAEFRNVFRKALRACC
T12 sequence (P21728 whole entry): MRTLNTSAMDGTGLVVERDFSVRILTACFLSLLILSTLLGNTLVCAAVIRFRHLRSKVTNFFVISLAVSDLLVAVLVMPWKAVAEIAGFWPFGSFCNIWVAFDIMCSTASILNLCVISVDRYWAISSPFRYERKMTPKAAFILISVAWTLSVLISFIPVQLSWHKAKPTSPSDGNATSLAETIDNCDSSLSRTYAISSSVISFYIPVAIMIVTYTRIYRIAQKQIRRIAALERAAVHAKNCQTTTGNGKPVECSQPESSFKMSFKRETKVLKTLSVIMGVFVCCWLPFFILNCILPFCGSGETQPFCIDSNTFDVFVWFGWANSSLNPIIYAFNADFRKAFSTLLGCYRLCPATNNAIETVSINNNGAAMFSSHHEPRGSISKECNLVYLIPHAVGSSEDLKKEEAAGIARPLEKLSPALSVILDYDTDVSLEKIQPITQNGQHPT
T4 sequence (P34969 whole entry): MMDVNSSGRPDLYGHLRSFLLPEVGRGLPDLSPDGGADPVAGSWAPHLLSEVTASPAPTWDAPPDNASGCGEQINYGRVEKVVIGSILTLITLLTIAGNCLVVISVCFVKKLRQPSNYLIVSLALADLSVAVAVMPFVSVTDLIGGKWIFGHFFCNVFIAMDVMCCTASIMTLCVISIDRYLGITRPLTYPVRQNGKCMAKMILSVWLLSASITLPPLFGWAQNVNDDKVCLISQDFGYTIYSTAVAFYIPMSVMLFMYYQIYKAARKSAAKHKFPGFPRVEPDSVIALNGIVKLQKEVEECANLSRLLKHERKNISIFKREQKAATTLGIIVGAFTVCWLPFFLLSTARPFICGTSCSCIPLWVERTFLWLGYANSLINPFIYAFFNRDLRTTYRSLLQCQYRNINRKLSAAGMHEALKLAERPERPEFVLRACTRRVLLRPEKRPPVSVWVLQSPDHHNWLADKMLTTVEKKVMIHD
T6 sequence (P08912 whole entry): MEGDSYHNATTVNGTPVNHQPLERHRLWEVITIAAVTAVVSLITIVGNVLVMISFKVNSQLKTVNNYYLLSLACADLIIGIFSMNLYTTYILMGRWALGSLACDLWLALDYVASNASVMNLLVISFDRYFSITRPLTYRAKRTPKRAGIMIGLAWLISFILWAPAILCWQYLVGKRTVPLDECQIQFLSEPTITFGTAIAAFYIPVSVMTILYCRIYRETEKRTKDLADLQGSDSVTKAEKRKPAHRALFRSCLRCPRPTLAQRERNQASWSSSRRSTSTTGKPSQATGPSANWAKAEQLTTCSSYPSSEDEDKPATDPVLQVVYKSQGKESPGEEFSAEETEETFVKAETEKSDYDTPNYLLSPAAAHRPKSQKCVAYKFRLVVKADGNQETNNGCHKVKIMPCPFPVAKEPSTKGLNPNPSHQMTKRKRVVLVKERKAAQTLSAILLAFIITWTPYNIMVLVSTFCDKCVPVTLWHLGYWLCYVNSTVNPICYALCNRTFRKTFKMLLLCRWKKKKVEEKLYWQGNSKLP

For `NCCc1c[nH]c2ccc(C(N)=O)cc12` [5-CT, 5-carboxamidotryptamine, reference compound], the EC50 (human 5-HT1B receptor) was 6.31 nM, the “Eff (%)” value (human 5-HT1B receptor; Table 3, 5-HT1B, percent response of reference 5-CT) was 100% and the “Eff (%)” value (human 5-HT1D receptor) was 100%. The EC50 (5-HT2B receptors) was 50.1 nM, the “Eff (%)” value (5-HT2B receptors; Table 3, 5-HT2B, percent response of reference 5-CT) was 100% and the “Eff (%)” value [1] was 100%. For the same compound, the EC50 (human 5-HT2A receptors [2]; Table 1, negative logarithm of EC50 in molar (M), NIH3T3 cells, mean ± SEM, read-out: R-SAT pEC50 (converted)) was 6.31e-08 M, the “R-SAT Eff(%)” value (human 5-HT2A receptors [2]; Table 1, percent response of reference ligand 5-CT, mean ± SEM) was 100 ± 0% and the EC50 (human 5-HT2A receptors [2]; Table 3, 5-HT2A, negative logarithm of EC50 in molar, read-out: pEC50 (converted)) was 7.94e-08 M. The “Eff (%)” value (human 5-HT2A receptors [2]; Table 3, 5-HT2A, percent response of reference 5-CT) was 100%, the EC50 (human 5-HT6 receptor) was 251 nM and the “Eff (%)” value (human 5-HT6 receptor; Table 3, 5-HT6, percent response of reference 5-CT) was 100%. The “Eff (%)” value (human 5-HT7 receptor) was 100%, the EC50 (human 5-HT2A receptors [3]; negative logarithm of EC50 in molar (M), HEK 293T cells, read-out: BRET2 pEC50 (converted)) was 2e-07 M and the “BRET2 Eff %” value (human 5-HT2A receptors [3]; [9]) was 98 ± 3%. For the same compound, the EC50 (human 5-HT2A receptors [4]; negative logarithm of EC50 in molar (M), HEK 293T cells, read-out: PI Hydrolysis pEC50 (converted)) was 2.51e-07 M and the “PI Hydrolysis Eff (%)” value (human 5-HT2A receptors [4]; [9]) was 92 ± 4%.
For `C[N+](C)(C)CCOC(N)=O` [Carbachol, reference compound], the “Eff (%)” value (human M4 receptor) was 100%, the “Eff (%)” value (human M5 receptor) was 100% and the “Eff (%)” value (human M2 receptor) was 100%.
`CCCN1C[C@H](CSC)C[C@@H]2c3cccc4[nH]cc(c34)C[C@H]21` [Pergolide] was tested, and the “GTPγS Eff %” value (D2 receptors [5]) was 94 ± 7%, the “agonist profile in BRET2 assays at D2 receptors” value (D2 receptors [6]) was “partial agonists” and the “BRET2 Eff %” value (D2 receptors [6]; percent response of reference ligand dopamine, mean ± SEM) was 64 ± 3%. For the same compound, the “Eff (%)” value [7] was 100%, the “R-SAT Eff(%)” value (D2 receptors [8]; Table 2, percent response of reference ligand pergolide, mean ± SEM) was 100 ± 0% and the “Eff (%)” value (D2 receptors [8]; Table 3, D2, percent response of reference Pergolide) was 100%. For the same compound, the “Eff (%)” value (human D3 receptor) was 100%.
For `CNC[C@H](O)c1cccc(O)c1` [Phenylephrine, reference compound], the “Eff (%)” value (human alpha1B receptor) was 100% and the “Eff (%)” value (human alpha1A receptor) was 100%.
In the case of `Oc1cc2c(cc1O)C(c1ccccc1)CNCC2` (stereo not shown) [SKF 38393, reference compound], the “Eff (%)” value (human D1 receptor) is reported as 100%.
With `Brc1c(NC2=NCCN2)ccc2nccnc12` [UK 14,306, reference compound] the “Eff (%)” value (human alpha2C receptor) was 100%.
